# Test results as given in patent US20110230481A2, “DERIVATIVES OF TETRABROMOBENZIMIDAZOLE, A PROCESS FOR THE PREPARATION THEREOF, A PHARMACEUTICAL COMPOSITION COMPRISING THE SAME, A METHOD OF USING THE SAME, A METHOD FOR MODULATING OR REGULATING SERINE/THREONINE KINASES, AND SERINE/THREONINE KINASES MODULATING AGENT” (SELVITA S.A., priority 2009, published 2011).
# Columns and labels:
# Assay in all cases: KINOMEscan Max
# Assay type in all cases: binding
# [1] = biological target: TBK1 (Homo sapiens, UniProt Q9UHD2)
# Method in brief: (§1)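 Binding was measured by competition: compounds were tested for their ability to displace DNA-tagged kinases from an immobilized ligand directed at the active site, with quantitative PCR of the tag as read-out.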
# [2] = biological target: T1, CDKL1 (Homo sapiens, UniProt Q00532)
# T1 construct: DNA tag (qPCR label); purchased Ambit Kinomescan (contract screening)
# Method in brief: as §1
# [3] = biological target: T2, IRAK1 (Homo sapiens, UniProt P51617)
# T2 construct: DNA tag (qPCR read-out)
# Method in brief: as §1
# [4] = biological target: T3, AMPK-alpha2 (Homo sapiens, UniProt P54646)
# T3 construct: DNA tag (qPCR label); purchased Ambit Kinomescan (contract screening)
# Method in brief: as §1
# [5] = biological target: BMPR2 (Homo sapiens, UniProt Q13873); settings: 1 μM
# Method in brief: as §1
# [6] = biological target: T4, SNRK (Homo sapiens, UniProt Q9NRH2)
# T4 construct: DNA tag (qPCR read-out)
# Method in brief: as §1
# [7] = biological target: T5, JNK2 (Homo sapiens, UniProt P45984); settings: 1 μM
# T5 construct: purchased Ambit Kinomescan (contract panel)
# Method in brief: as §1
# [8] = biological target: T6, KIT(V559D.T670I) (Homo sapiens, UniProt P10721, T670I/V559D)
# T6 construct: purchased Ambit Kinomescan (contract panel)
# Method in brief: as §1
# [9] = biological target: T7, RSK2(Kin.Dom.1-N-terminal) (Homo sapiens, UniProt P51812)
# T7 construct: RSK2(Kin.Dom.1-N-terminal); DNA tag (qPCR read-out)
# Method in brief: as §1
# [10] = biological target: p38-gamma (Homo sapiens, UniProt P53778)
# Method in brief: as §1
# [11] = biological target: T8, MAP3K3 (Homo sapiens, UniProt Q99759)
# T8 construct: purchased Ambit Kinomescan (contract panel)
# Method in brief: as §1
# [12] = biological target: T9, SNARK (Homo sapiens, UniProt Q9H093); settings: 1 μM
# T9 construct: DNA tag (qPCR read-out)
# Method in brief: as §1
# [13] = biological target: T10, FER (Homo sapiens, UniProt P16591)
# T10 construct: purchased Ambit Kinomescan (contract panel, KINOMEscan Max)
# Method in brief: as §1
# [14] = biological target: T11, KIT(D816H) (Homo sapiens, UniProt P10721, D816H)
# T11 construct: purchased Ambit Kinomescan (contract screening)
# Method in brief: as §1
# [15] = biological target: T12, IKK-epsilon (Homo sapiens, UniProt Q14164)
# T12 construct: purchased Ambit Kinomescan (contract panel, KINOMEscan Max)
# Method in brief: as §1
# [16] = biological target: ACVR1 (Homo sapiens, UniProt Q04771)
# Method in brief: as §1
# [17] = biological target: T13, SGK3 (Homo sapiens, UniProt Q96BR1)
# T13 construct: DNA tag (qPCR read-out)
# Method in brief: as §1
# [18] = biological target: T14, CDC2L1 (Homo sapiens, UniProt P21127)
# T14 construct: DNA tag (qPCR label); purchased Ambit Kinomescan (contract screening)
# Method in brief: as §1
# [19] = biological target: T15, RET(V804L) (Homo sapiens, UniProt P07949, V804L)
# T15 construct: DNA tag (qPCR read-out)
# Method in brief: as §1
# [20] = biological target: T16, MYLK4 (Homo sapiens, UniProt Q86YV6)
# T16 construct: DNA tag (qPCR read-out); purchased Ambit Kinomescan
# Method in brief: as §1
# [21] = biological target: MLCK (Homo sapiens, UniProt Q32MK0)
# Method in brief: as §1
# [22] = biological target: T17, PIP5K2B (Homo sapiens, UniProt P78356)
# T17 construct: purchased Ambit Kinomescan (contract screening)
# Method in brief: as §1
# [23] = biological target: T18, BMX (Homo sapiens, UniProt P51813)
# T18 construct: DNA tag (qPCR read-out)
# Method in brief: as §1
# [24] = biological target: AKT2 (Homo sapiens, UniProt P31751)
# Method in brief: as §1
# [25] = biological target: T19, NEK11 (Homo sapiens, UniProt Q8NG66)
# T19 construct: DNA tag (qPCR read-out)
# Method in brief: as §1
# [26] = biological target: T20, STK16 (Homo sapiens, UniProt O75716)
# T20 construct: DNA tag (qPCR read-out)
# Method in brief: as §1
# [27] = biological target: T21, CAMKK1 (Homo sapiens, UniProt Q8N5S9)
# T21 construct: DNA tag (qPCR label); purchased Ambit Kinomescan (contract screening)
# Method in brief: as §1
# [28] = biological target: T22, EGFR(L747-T751del.Sins) (Homo sapiens, UniProt P00533, DEL747-750/T751S); settings: 1 μM
# T22 construct: purchased Ambit (KINOMEscan Max panel service)
# Method in brief: as §1
# [29] = biological target: T23, RIPK2 (Homo sapiens, UniProt O43353)
# T23 construct: DNA tag (qPCR read-out)
# Method in brief: as §1
# [30] = biological target: T24, DMPK (Homo sapiens, UniProt Q09013)
# T24 construct: purchased Ambit (KINOMEscan Max panel service)
# Method in brief: as §1
# [31] = biological target: T25, CDK7 (Homo sapiens, UniProt P50613)
# T25 construct: DNA tag (qPCR read-out)
# Method in brief: as §1
# [32] = biological target: T26, TAOK3 (Homo sapiens, UniProt Q9H2K8)
# T26 construct: purchased Ambit Kinomescan (contract screening service)
# Method in brief: as §1
# [33] = biological target: PHKG2 (Homo sapiens, UniProt P15735)
# Method in brief: as §1
# [34] = biological target: EGFR(L858R) (Homo sapiens, UniProt P00533, L858R); settings: 1 μM
# Method in brief: as §1
# T9 sequence (Q9H093 whole entry): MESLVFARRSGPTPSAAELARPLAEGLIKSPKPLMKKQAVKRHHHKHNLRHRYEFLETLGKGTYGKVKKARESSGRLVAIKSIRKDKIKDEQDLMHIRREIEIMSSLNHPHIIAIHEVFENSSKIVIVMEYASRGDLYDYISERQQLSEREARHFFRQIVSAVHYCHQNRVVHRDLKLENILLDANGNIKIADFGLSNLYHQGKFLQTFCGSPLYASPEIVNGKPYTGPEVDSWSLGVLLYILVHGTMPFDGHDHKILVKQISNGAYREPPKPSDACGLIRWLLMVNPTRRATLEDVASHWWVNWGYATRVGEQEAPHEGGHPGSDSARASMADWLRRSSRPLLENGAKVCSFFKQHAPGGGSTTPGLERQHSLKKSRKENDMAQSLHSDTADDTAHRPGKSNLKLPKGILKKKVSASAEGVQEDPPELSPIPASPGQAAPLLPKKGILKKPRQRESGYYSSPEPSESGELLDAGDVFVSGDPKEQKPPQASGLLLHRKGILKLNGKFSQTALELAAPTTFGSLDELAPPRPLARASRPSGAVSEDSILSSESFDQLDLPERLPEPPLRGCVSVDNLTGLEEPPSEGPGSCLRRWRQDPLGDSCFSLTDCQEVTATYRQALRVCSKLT
# T22 sequence (P00533 with tags, fused parts or gaps DEL747-750/T751S limits assumed): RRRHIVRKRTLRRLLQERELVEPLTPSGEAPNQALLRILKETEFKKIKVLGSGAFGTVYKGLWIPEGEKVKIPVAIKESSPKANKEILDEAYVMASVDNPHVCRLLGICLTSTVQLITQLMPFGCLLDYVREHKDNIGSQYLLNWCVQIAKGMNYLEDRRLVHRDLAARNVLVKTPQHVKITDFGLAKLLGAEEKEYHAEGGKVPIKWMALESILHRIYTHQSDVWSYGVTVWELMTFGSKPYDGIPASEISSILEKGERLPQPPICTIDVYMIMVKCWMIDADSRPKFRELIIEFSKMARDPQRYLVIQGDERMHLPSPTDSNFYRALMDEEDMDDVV
# T13 sequence (Q96BR1 whole entry): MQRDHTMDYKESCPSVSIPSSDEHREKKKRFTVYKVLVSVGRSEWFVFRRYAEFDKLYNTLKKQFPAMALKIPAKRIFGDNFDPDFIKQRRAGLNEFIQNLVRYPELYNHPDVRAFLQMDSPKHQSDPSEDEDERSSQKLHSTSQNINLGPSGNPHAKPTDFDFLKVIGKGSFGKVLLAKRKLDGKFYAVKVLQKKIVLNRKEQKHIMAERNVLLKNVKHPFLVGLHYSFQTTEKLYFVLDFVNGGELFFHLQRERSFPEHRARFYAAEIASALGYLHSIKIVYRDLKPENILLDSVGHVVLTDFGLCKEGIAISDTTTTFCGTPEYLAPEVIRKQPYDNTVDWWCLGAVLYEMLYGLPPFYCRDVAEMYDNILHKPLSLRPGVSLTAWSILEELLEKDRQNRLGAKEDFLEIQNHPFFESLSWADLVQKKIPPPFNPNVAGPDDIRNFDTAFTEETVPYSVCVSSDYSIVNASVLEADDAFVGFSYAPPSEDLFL
# T11 sequence (P10721 26-976 D816H): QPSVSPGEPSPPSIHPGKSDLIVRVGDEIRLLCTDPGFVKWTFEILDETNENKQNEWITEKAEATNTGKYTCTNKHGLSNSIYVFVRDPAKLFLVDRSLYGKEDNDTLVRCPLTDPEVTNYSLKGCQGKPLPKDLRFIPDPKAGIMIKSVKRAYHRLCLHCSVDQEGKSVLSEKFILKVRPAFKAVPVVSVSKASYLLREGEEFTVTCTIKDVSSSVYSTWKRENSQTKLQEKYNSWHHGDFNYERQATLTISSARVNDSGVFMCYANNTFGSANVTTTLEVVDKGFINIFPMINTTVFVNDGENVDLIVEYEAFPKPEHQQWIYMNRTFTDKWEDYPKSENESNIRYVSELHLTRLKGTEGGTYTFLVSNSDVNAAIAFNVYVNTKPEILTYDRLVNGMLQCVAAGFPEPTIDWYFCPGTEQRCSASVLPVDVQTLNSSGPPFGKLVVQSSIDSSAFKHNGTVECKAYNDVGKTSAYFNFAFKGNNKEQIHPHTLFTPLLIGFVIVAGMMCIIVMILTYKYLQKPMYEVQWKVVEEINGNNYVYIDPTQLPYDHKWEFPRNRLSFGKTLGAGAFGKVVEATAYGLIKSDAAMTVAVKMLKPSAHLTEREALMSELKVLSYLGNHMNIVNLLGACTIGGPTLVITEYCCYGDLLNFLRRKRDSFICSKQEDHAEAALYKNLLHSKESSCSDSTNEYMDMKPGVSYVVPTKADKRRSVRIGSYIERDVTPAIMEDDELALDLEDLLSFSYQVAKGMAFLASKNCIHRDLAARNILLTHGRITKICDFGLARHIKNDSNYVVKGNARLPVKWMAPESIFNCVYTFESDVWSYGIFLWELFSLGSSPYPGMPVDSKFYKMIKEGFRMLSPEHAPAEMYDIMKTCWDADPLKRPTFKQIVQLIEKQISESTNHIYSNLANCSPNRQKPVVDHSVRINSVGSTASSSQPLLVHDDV
# T8 sequence (Q99759 whole entry): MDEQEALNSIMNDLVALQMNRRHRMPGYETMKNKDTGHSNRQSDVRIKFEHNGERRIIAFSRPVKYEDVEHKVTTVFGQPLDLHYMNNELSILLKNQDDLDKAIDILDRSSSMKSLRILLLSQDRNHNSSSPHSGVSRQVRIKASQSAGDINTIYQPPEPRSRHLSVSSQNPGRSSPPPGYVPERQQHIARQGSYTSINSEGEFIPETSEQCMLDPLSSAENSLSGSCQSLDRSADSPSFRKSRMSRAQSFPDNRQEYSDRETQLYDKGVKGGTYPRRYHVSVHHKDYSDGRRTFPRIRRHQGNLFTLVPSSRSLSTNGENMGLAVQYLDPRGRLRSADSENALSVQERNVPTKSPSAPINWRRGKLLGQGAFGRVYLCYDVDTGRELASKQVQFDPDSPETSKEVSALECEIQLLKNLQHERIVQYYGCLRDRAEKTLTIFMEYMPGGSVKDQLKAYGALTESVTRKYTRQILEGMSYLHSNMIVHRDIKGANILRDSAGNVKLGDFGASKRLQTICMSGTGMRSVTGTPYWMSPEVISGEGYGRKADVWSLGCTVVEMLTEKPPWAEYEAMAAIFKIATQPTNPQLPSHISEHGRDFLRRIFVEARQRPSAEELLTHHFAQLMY
# T7 sequence (P51812 68-327 limits assumed): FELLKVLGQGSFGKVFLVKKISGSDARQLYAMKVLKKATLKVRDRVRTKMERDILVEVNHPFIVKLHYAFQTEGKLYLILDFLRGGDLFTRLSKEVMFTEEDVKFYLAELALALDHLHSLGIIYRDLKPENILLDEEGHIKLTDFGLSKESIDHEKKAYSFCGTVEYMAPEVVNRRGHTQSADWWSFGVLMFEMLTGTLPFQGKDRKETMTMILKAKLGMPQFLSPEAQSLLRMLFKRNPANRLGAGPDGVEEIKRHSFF
# EGFR(L858R), sequence (P00533 25-1210 L858R): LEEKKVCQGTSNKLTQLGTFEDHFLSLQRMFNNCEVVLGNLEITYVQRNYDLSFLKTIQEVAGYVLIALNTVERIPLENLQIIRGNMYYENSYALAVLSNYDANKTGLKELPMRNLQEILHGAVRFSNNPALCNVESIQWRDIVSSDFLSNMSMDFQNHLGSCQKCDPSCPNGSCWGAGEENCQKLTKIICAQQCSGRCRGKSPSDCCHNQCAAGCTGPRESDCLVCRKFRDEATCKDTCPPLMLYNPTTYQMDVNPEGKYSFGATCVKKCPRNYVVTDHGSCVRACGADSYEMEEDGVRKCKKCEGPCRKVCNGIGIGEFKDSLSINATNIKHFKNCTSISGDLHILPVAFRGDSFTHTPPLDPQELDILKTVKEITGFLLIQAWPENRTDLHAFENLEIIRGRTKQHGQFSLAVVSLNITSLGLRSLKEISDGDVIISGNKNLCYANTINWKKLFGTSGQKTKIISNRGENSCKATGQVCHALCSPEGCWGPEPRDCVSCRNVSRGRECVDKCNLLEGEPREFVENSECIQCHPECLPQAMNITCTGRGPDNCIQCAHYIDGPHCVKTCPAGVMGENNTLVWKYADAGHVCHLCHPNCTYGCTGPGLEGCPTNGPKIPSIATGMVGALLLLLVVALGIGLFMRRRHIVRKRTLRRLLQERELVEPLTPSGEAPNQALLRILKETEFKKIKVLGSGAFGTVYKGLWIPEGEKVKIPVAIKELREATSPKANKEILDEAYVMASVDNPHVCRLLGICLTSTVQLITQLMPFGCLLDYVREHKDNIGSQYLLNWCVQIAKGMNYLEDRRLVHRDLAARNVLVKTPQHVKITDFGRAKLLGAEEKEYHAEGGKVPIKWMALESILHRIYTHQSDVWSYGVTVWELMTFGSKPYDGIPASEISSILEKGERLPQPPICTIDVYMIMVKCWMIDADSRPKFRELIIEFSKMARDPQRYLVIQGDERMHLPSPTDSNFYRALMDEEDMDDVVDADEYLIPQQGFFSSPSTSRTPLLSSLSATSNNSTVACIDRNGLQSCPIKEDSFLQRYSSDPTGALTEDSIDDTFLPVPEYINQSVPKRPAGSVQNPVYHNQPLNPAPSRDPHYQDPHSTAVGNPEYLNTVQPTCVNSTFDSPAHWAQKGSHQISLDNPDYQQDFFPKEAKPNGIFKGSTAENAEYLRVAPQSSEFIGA
# T5 sequence (P45984 whole entry): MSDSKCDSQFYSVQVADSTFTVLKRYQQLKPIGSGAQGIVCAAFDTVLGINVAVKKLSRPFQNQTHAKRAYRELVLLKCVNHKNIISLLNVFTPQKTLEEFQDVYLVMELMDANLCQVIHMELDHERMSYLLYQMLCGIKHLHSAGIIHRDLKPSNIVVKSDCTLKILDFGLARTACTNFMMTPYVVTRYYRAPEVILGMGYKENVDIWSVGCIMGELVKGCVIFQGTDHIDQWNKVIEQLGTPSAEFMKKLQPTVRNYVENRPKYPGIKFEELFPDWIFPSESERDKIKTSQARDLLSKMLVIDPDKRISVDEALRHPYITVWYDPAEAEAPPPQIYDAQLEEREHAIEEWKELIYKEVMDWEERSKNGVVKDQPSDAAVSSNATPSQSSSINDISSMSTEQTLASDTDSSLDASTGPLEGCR
# T6 sequence (P10721 26-976 V559D/T670I): as the sequence (P10721 26-976 D816H) above, with V534D, T645I, H791D counted along it
smiles,measurement,setting,value
"NCCCNc1nc2c(Br)c(Br)c(Br)c(Br)c2[nH]1 [Compound 11, N-(3-aminopropyl)-4,5,6,7-tetrabromo-1H-benzo[d]imidazol-2-amine]",remaining binding at 1 µM,[1],76%
same,remaining binding at 1 µM,[2],100%
same,remaining binding at 1 µM,[3],52%
same,remaining binding at 1 µM,[4],100%
same,% binding,[5],99%
same,remaining binding at 1 µM,[6],100%
same,% binding,[7],100%
same,remaining binding at 1 µM,[8],100%
same,remaining binding at 1 µM,[9],100%
same,remaining binding at 1 µM,[10],76%
same,remaining binding at 1 µM,[11],100%
same,% binding,[12],54%
same,remaining binding at 1 µM,[13],100%
same,remaining binding at 1 µM,[14],97%
same,remaining binding at 1 µM,[15],100%
same,remaining binding at 1 µM,[16],100%
same,remaining binding at 1 µM,[17],100%
same,remaining binding at 1 µM,[18],100%
same,remaining binding at 1 µM,[19],100%
same,remaining binding at 1 µM,[20],24%
same,remaining binding at 1 µM,[21],92%
same,remaining binding at 1 µM,[22],97%
same,remaining binding at 1 µM,[23],88%
same,remaining binding at 1 µM,[24],99%
same,remaining binding at 1 µM,[25],89%
same,remaining binding at 1 µM,[26],87%
same,remaining binding at 1 µM,[27],100%
same,% binding,[28],100%
same,remaining binding at 1 µM,[29],100%
same,remaining binding at 1 µM,[30],100%
same,remaining binding at 1 µM,[31],27%
same,remaining binding at 1 µM,[32],100%
same,remaining binding at 1 µM,[33],75%
same,% binding,[34],96%
